Source: ChEMBL document CHEMBL1671854, “ramR mutations involved in efflux-mediated multidrug resistance in Salmonella enterica serovar Typhimurium” (2008)
Values after ≈ are worked out from the molar mass of the structure shown.

Experiments:
Format in all cases: functional, Salmonella enterica subsp. enterica serovar Typhimurium
Salmonella typhimurium [1] = assay: Antimicrobial activity against Salmonella enterica serovar Typhimurium BN18 by agar doubling dilution method
Salmonella typhimurium [2] = assay: Antimicrobial activity against Salmonella enterica serovar Typhimurium BN18/71 harboring plasmid encoded RamR gene, GyrA G81C,acrR mutant genes by agar doubling dilution method
Salmonella typhimurium [3] = assay: Antimicrobial activity against multidrug-resistant Salmonella enterica serovar Typhimurium 543SA98 harboring plasmid encoded RamR gene, GyrA S83Y mutant gene by agar doubling dilution method
Salmonella typhimurium [4] = assay: Antimicrobial activity against Salmonella enterica serovar Typhimurium BN18/71 harboring GyrA G81C, acrR mutant genes by agar doubling dilution method
Salmonella typhimurium [5] = assay: Antimicrobial activity against Salmonella enterica serovar Typhimurium BN18/41 harboring GyrA G81C,acrR mutant genes by agar doubling dilution method
Salmonella typhimurium [6] = assay: Antimicrobial activity against ramA::kan-deficient Salmonella enterica serovar Typhimurium S/921495 by agar doubling dilution method
Salmonella typhimurium [7] = assay: Antimicrobial activity against multidrug-resistant Salmonella enterica serovar Typhimurium 102SA00 harboring GyrA S83A and D87N, GyrB S464F and ParC S80I mutant genes by agar doubling dilution method
Salmonella typhimurium [8] = assay: Antimicrobial activity against multidrug-resistant Salmonella enterica serovar Typhimurium 902SA92 harboring GyrA S83A and D87N, GyrB S464F and ParC S80I mutant genes by agar doubling dilution method
Salmonella typhimurium [9] = assay: Antimicrobial activity against ramA::kan-deficient Salmonella enterica serovar Typhimurium BN9181 by agar doubling dilution method
Salmonella typhimurium [10] = assay: Antimicrobial activity against Salmonella enterica serovar Typhimurium BN18 harboring plasmid encoded RamR gene by agar doubling dilution method
Salmonella typhimurium [11] = assay: Antimicrobial activity against ramA::kan-deficient Salmonella enterica serovar Typhimurium BN9945 by agar doubling dilution method
Salmonella typhimurium [12] = assay: Antimicrobial activity against Salmonella enterica serovar Typhimurium S/921495 harboring plasmid encoded RamR gene by agar doubling dilution method
Salmonella typhimurium [13] = assay: Antimicrobial activity against soxS::kan-deficient Salmonella enterica serovar Typhimurium S/921495 by agar doubling dilution method
Salmonella typhimurium [14] = assay: Antimicrobial activity against ramR-deficient Salmonella enterica serovar Typhimurium S/921495 by agar doubling dilution method
Salmonella typhimurium [15] = assay: Antimicrobial activity against Salmonella enterica serovar Typhimurium BN18/41 harboring plasmid encoded RamR gene, GyrA G81C,acrR mutant genes by agar doubling dilution method
Salmonella typhimurium [16] = assay: Antimicrobial activity against multidrug-resistant Salmonella enterica serovar Typhimurium BN10055 harboring plasmid encoded RamR gene, GyrA S83Y mutant gene by agar doubling dilution method
Salmonella typhimurium [17] = assay: Antimicrobial activity against ramA::kan-deficient Salmonella enterica serovar Typhimurium BN10055 harboring GyrA S83Y mutant gene by agar doubling dilution method
Salmonella typhimurium [18] = assay: Antimicrobial activity against ramA::kan-deficient Salmonella enterica serovar Typhimurium BN18/71 harboring plasmid encoded RamR gene, GyrA G81C,acrR mutant genes by agar doubling dilution method
Salmonella typhimurium [19] = assay: Antimicrobial activity against multidrug-resistant Salmonella enterica serovar Typhimurium BN9945 harboring plasmid encoded RamR gene by agar doubling dilution method
Salmonella typhimurium [20] = assay: Antimicrobial activity against ramA::kan-deficient Salmonella enterica serovar Typhimurium BN18 by agar doubling dilution method
Salmonella typhimurium [21] = assay: Antimicrobial activity against ramA::kan-deficient Salmonella enterica serovar Typhimurium 543SA98 harboring GyrA S83Y mutant gene by agar doubling dilution method
Salmonella typhimurium [22] = assay: Antimicrobial activity against Salmonella enterica serovar Typhimurium BN18/21 harboring plasmid encoded RamR gene by agar doubling dilution method
Salmonella typhimurium [23] = assay: Antimicrobial activity against marR::kan-deficient Salmonella enterica serovar Typhimurium S/921495 by agar doubling dilution method
Salmonella typhimurium [24] = assay: Antimicrobial activity against soxR::kan-deficient Salmonella enterica serovar Typhimurium S/921495 by agar doubling dilution method
Salmonella typhimurium [25] = assay: Antimicrobial activity against Salmonella enterica serovar Typhimurium BN18/21 by agar doubling dilution method
Salmonella typhimurium [26] = assay: Antimicrobial activity against ramA::kan-deficient Salmonella enterica serovar Typhimurium BN18/41 harboring plasmid encoded RamR gene, GyrA G81C,acrR mutant genes by agar doubling dilution method
Salmonella typhimurium [27] = assay: Antimicrobial activity against ramA::kan-deficient Salmonella enterica serovar Typhimurium 102SA00 harboring GyrA S83A and D87N, GyrB S464F and ParC S80I mutant genes by agar doubling dilution method
Salmonella typhimurium [28] = assay: Antimicrobial activity against ramA::kan-deficient Salmonella enterica serovar Typhimurium BN18/21 by agar doubling dilution method
Salmonella typhimurium [29] = assay: Antimicrobial activity against marR-deficient Salmonella enterica serovar Typhimurium S/921495 by agar doubling dilution method
Salmonella typhimurium [30] = assay: Antimicrobial activity against ramA::kan-deficient Salmonella enterica serovar Typhimurium 902SA92 harboring GyrA S83A and D87N, GyrB S464F and ParC S80I mutant genes by agar doubling dilution method
Salmonella typhimurium [31] = assay: Antimicrobial activity against multidrug-resistant Salmonella enterica serovar Typhimurium BN9181 harboring plasmid encoded RamR gene by agar doubling dilution method
Salmonella typhimurium [32] = assay: Antimicrobial activity against marA::kan-deficient Salmonella enterica serovar Typhimurium S/921495 by agar doubling dilution method
Salmonella typhimurium [33] = assay: Antimicrobial activity against multidrug-resistant Salmonella enterica serovar Typhimurium 543SA98 harboring GyrA […] mutant gene by agar doubling dilution method
Salmonella typhimurium [34] = assay: Antimicrobial activity against multidrug-resistant Salmonella enterica serovar Typhimurium BN10055 harboring GyrA S83Y mutant gene by agar doubling dilution method
Salmonella typhimurium [35] = assay: Antimicrobial activity against multidrug-resistant Salmonella enterica serovar Typhimurium BN9945 by agar doubling dilution method
Salmonella typhimurium [36] = assay: Antimicrobial activity against multidrug-resistant Salmonella enterica serovar Typhimurium 902SA92 harboring plasmid encoded RamR gene, GyrA S83A and D87N, GyrB S464F and ParC S80I mutant genes by agar doubling dilution method
Salmonella typhimurium [37] = assay: Antimicrobial activity against Salmonella enterica serovar Typhimurium S/921495 by agar doubling dilution method
Salmonella typhimurium [38] = assay: Antimicrobial activity against ramR-deficient Salmonella enterica serovar Typhimurium S/921495 harboring plasmid encoded RamR gene by agar doubling dilution method
Salmonella typhimurium [39] = assay: Antimicrobial activity against multidrug-resistant Salmonella enterica serovar Typhimurium 102SA00 harboring plasmid encoded RamR gene, GyrA S83A and D87N, GyrB S464F and ParC S80I mutant genes by agar doubling dilution method
Salmonella typhimurium [40] = assay: Antimicrobial activity against multidrug-resistant Salmonella enterica serovar Typhimurium BN9181 by agar doubling dilution method
Salmonella typhimurium [41] = assay: Antimicrobial activity against ramR::kan-deficient Salmonella enterica serovar Typhimurium S/921495 by agar doubling dilution method

**Q.** Which results are given for CCn1cc(C(=O)O)c(=O)c2ccc(C)nc21 [NALIDIXIC ACID]?
**A.** MIC (Salmonella typhimurium [1]): 4 µg/mL (≈ 17.2 µM); MIC (Salmonella typhimurium [2]): 4100 µg/mL (≈ 17600 µM); MIC (Salmonella typhimurium [3]): 512 µg/mL (≈ 2200 µM); MIC (Salmonella typhimurium [4]): > 4100 µg/mL; MIC (Salmonella typhimurium [5]): > 4100 µg/mL; MIC (Salmonella typhimurium [6]): 4 µg/mL (≈ 17.2 µM); MIC (Salmonella typhimurium [7]): > 4100 µg/mL; MIC (Salmonella typhimurium [8]): > 4100 µg/mL; MIC (Salmonella typhimurium [9]): 4 µg/mL (≈ 17.2 µM); MIC (Salmonella typhimurium [10]): 4 µg/mL (≈ 17.2 µM); MIC (Salmonella typhimurium [11]): 512 µg/mL (≈ 2200 µM); MIC (Salmonella typhimurium [12]): 4 µg/mL (≈ 17.2 µM); MIC (Salmonella typhimurium [13]): 4 µg/mL (≈ 17.2 µM); MIC (Salmonella typhimurium [14]): 16 µg/mL (≈ 68.9 µM); MIC (Salmonella typhimurium [15]): 4100 µg/mL (≈ 17600 µM); MIC (Salmonella typhimurium [16]): > 4100 µg/mL; MIC (Salmonella typhimurium [17]): 512 µg/mL (≈ 2200 µM); MIC (Salmonella typhimurium [18]): 4100 µg/mL (≈ 17600 µM); MIC (Salmonella typhimurium [19]): 512 µg/mL (≈ 2200 µM); MIC (Salmonella typhimurium [20]): 4 µg/mL (≈ 17.2 µM); MIC (Salmonella typhimurium [21]): 512 µg/mL (≈ 2200 µM); MIC (Salmonella typhimurium [22]): 8 µg/mL (≈ 34.4 µM); MIC (Salmonella typhimurium [23]): 2 µg/mL (≈ 8.61 µM); MIC (Salmonella typhimurium [24]): 2 µg/mL (≈ 8.61 µM); MIC (Salmonella typhimurium [25]): 64 µg/mL (≈ 276 µM); MIC (Salmonella typhimurium [26]): 4100 µg/mL (≈ 17600 µM); MIC (Salmonella typhimurium [27]): 4100 µg/mL (≈ 17600 µM); MIC (Salmonella typhimurium [28]): 8 µg/mL (≈ 34.4 µM); MIC (Salmonella typhimurium [29]): 2 µg/mL (≈ 8.61 µM); MIC (Salmonella typhimurium [30]): 4100 µg/mL (≈ 17600 µM); MIC (Salmonella typhimurium [31]): 4 µg/mL (≈ 17.2 µM); MIC (Salmonella typhimurium [32]): 4 µg/mL (≈ 17.2 µM); MIC (Salmonella typhimurium [33]): 1020 µg/mL (≈ 4410 µM); MIC (Salmonella typhimurium [34]): > 4100 µg/mL; MIC (Salmonella typhimurium [35]): 1020 µg/mL (≈ 4410 µM); MIC (Salmonella typhimurium [36]): 4100 µg/mL (≈ 17600 µM); MIC (Salmonella typhimurium [37]): 4 µg/mL (≈ 17.2 µM); MIC (Salmonella typhimurium [38]): 4 µg/mL (≈ 17.2 µM); MIC (Salmonella typhimurium [39]): 4100 µg/mL (≈ 17600 µM); MIC (Salmonella typhimurium [40]): 4 µg/mL (≈ 17.2 µM); MIC (Salmonella typhimurium [41]): 16 µg/mL (≈ 68.9 µM)
